Values after ≈ are worked out from the molar mass of the structure shown. Where two headings read alike, the source gives them in different places. Starred links: 1 amine or outer side, 2 acyl side, 3 side chain; linkers in the order of their positions; H or OH if unused. Positions of bridges follow the written chain, without caps; N, C: chain ends. Residues, ends and D or L forms follow the SMILES beside them. *: point of attachment. C20 diacid = O=C(O)CCCCCCCCCCCCCCCCCCC(=O)*; γGlu = O=C(O)[C@H](CCC(=O)[*:2])N[*:1]
What was measured:
amylin receptor = molecular target: T1, amylin receptor (Homo sapiens, UniProt P30988); conditions: amylin receptor vs calcitonin receptor, cited from earlier work
T1 sequence (P30988 25-474): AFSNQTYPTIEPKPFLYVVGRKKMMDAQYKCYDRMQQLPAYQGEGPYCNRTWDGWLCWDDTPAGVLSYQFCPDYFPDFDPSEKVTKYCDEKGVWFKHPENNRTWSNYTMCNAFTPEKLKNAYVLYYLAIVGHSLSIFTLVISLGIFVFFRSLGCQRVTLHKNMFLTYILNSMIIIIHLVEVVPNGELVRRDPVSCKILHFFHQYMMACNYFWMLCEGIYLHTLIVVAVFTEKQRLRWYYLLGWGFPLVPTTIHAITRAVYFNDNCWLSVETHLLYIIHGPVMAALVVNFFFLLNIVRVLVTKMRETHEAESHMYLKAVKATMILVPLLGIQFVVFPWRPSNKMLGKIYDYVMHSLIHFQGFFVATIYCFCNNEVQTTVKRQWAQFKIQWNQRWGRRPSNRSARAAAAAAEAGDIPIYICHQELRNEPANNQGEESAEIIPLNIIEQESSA

[1] = cited from earlier work
[2] = molecular target: T2, rat amylin 3(a) receptor (rat calcitonin(a) receptor + rat RAMP3) (Rattus norvegicus, UniProt P32214+Q9JJ73); assay: Assay (II)b functional cAMP FlashPlate assay, rat amylin receptor; format: cell-based; conditions: Table 11
T2 construct: expressed in transfected cells; host or cells: BHK tk'ts 13
T2 sequence (P32214 25-479 isoform P32214-2 limits assumed): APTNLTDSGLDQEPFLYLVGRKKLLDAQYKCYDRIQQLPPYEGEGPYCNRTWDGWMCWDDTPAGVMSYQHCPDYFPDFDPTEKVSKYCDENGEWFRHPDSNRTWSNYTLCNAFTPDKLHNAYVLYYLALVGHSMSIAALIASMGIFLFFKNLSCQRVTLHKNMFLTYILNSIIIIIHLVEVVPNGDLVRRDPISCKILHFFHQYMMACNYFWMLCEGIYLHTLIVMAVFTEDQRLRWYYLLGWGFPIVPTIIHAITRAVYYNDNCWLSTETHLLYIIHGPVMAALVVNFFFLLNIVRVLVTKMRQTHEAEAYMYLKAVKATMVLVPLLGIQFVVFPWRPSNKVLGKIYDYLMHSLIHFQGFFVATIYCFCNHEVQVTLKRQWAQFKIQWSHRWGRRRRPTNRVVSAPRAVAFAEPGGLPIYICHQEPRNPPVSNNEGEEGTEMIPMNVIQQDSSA
T2 sequence (Q9JJ73 23-147 partner): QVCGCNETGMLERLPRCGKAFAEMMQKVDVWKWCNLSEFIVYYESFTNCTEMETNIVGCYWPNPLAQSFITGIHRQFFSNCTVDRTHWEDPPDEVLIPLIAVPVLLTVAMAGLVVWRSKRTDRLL
How it was run: (§1)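 BHK tk'ts 13 cells transiently transfected with rat calcitonin(a) receptor, alone or with rat RAMP3 (amylin 3(a)), were stimulated 24 hours later with sample for 30 min in buffer containing IBMX. cAMP measured by competitive radioactive FlashPlate assay, scintillation read after 3 h detection incubation.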

[3] = molecular target: T3, human amylin receptor (amylin 3(a) receptor: human calcitonin receptor + RAMP-3) (Homo sapiens, UniProt O60896+P30988); assay: Assay (II)a functional CRE-luciferase assay, human amylin receptor; format: cell-based; conditions: Table 2; BHK amylin 3(a)-receptor/CRE-luc cells
T3 construct: expressed in transfected cells; host or cells: BHK570
T3 sequence (P30988 25-474): T1 sequence (P30988 25-474)
T3 sequence (O60896 24-148 partner): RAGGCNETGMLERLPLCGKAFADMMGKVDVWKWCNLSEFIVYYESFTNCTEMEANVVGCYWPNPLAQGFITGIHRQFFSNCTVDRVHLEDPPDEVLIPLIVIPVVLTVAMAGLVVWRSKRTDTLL

[4] = Assay (IV) determination of solubility; format: physicochemical
How it was run: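 Polypeptide in water (~500 nmol/ml) mixed 1:1 with 100 mM glycylglycine (pH 3.0–5.0) or bistrispropane (pH 6.0–8.0) buffers. Held 18 hours at room temperature, then centrifuged. Polypeptide remaining in solution quantified by HPLC.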

[5] = molecular target: T4, rat calcitonin (a) receptor (Rattus norvegicus, UniProt P32214); assay: Assay (II)b functional cAMP FlashPlate assay, rat calcitonin receptor; format: cell-based; conditions: Table 11; read-out: CTa receptor rat EC50
T4 construct: expressed in transfected cells; host or cells: BHK tk'ts 13
T4 sequence (P32214 25-479 isoform P32214-2 limits assumed): T2 sequence (P32214 25-479 isoform P32214-2 limits assumed)
How it was run: as §1

[6] = molecular target: T5, human calcitonin receptor (Homo sapiens, UniProt P30988); assay: Assay (II)a functional CRE-luciferase assay, human calcitonin receptor; format: cell-based; conditions: Table 7; human calcitonin (CTa) receptor
T5 construct: expressed in transfected cells; host or cells: BHK570
T5 sequence (P30988 25-474): T1 sequence (P30988 25-474)

[7] = Assay (IX) pK, determination of T½ in mini-pig; format: in vivo, Göttingen mini-pigs; conditions: male, Göttingen, iv, 2 nmol/kg; minipig; plasma terminal half-life

pramlintide
potency on the amylin receptor relative to the calcitonin receptor (amylin receptor): 14 times
potency on the amylin receptor relative to the calcitonin receptor (amylin receptor; listed as Pramlintide): approximately 14 times

salmon calcitonin
plasma half-life [1]: about 45 minutes

CC[C@H](C)[C@H](NC(=O)[C@@H]1CCCN1C(=O)CNC(=O)[C@H](Cc1ccccc1)NC(=O)[C@H](CC(N)=O)NC(=O)[C@H](CC(N)=O)NC(=O)[C@H](CO)NC(=O)[C@H](CO)NC(=O)[C@H](Cc1cnc[nH]1)NC(=O)[C@H](Cc1cnc[nH]1)NC(=O)[C@H](CC(C)C)NC(=O)[C@H](Cc1ccccc1)NC(=O)[C@H](CCC(=O)O)NC(=O)[C@H](C)NC(=O)[C@H](CC(C)C)NC(=O)[C@H](CCCNC(=N)N)NC(=O)[C@H](CCC(N)=O)NC(=O)[C@@H](NC(=O)[C@H](C)NC(=O)[C@@H]1CSSC[C@H](NC(=O)[C@H](Cc2cnc[nH]2)NC(=O)[C@H](Cc2cnc[nH]2)NC(=O)[C@H](Cc2cnc[nH]2)NC(=O)CC[C@H](NC(=O)CCCCCCCCCCCCCCCCCCC(=O)O)C(=O)O)C(=O)N[C@@H](CC(N)=O)C(=O)N[C@@H]([C@@H](C)O)C(=O)N[C@@H](C)C(=O)N[C@@H]([C@@H](C)O)C(=O)N1)[C@@H](C)O)C(=O)N[C@@H](CC(C)C)C(=O)N1CCC[C@H]1C(=O)N1CCC[C@H]1C(=O)N[C@H](C(=O)N[C@@H](CC(N)=O)C(=O)N[C@H](C(=O)NCC(=O)N[C@@H](CO)C(=O)N[C@@H](CC(N)=O)C(=O)N[C@H](C(=O)N[C@@H](Cc1ccc(O)cc1)C(N)=O)[C@@H](C)O)C(C)C)[C@@H](C)O [Example 11, N-alpha-[(S)-4-Carboxy-4-(19-carboxynonadecanoylamino)butyryl]-His-His-[His1,Glu14,His17]-pramlintide] ({C20 diacid-γGlu}-HHHCNTATCATQRLAEFLHHSSNNFGPILPPTNVGSNTY-NH2; disulfide 4-9)
EC50 [2]: 0.0885 nM
EC50 [3]: 0.0853 nM
solubility at 18 h ([4]; bistrispropane buffer, pH 6, pH 6.0, read-out: Solubility pH 6.0): > 200 µM
solubility at 18 h ([4]; bistrispropane buffer, pH 6.5, pH 6.5, read-out: Solubility pH 6.5): 44 µM (≈ 209 µg/mL)
solubility at 18 h ([4]; bistrispropane buffer, pH 7, pH 7.0, read-out: Solubility pH 7.0): 29 µM (≈ 137 µg/mL)
solubility at 18 h ([4]; bistrispropane buffer, pH 7.5, pH 7.5, read-out: Solubility pH 7.5): 157 µM (≈ 744 µg/mL)
solubility at 18 h ([4]; bistrispropane buffer, pH 8, pH 8.0, read-out: Solubility pH 8.0): > 200 µM
solubility at 18 h ([4]; glycylglycine buffer, pH 3, pH 3.0, read-out: Solubility pH 3.0): > 200 µM
solubility at 18 h ([4]; glycylglycine buffer, pH 4, pH 4.0, 18 hours at room temperature, Table 2, read-out: Solubility pH 4.0): > 200 µM
solubility at 18 h ([4]; glycylglycine buffer, pH 4, pH 4.0, read-out: Solubility pH 4.0): > 200 µM
solubility at 18 h ([4]; glycylglycine buffer, pH 5, pH 5.0, read-out: Solubility pH 5.0): > 200 µM
EC50 [5]: 0.962 nM
EC50 [6]: 0.208 nM
half-life [7]: 106 h
